The text below walks through data of article PMC317294 (BMC Pharmacology, 2003).

Test [1] concerns the target T1, human mu opioid receptor (hMOR) (Homo sapiens, UniProt P35372). In kind it is cell-based.
The target of test [2] is T2, Ala^348,353 hMOR (Homo sapiens, UniProt P35372, C348A/C353A). In kind it is cell-based.
Test [3] concerns the target T2, Ala^348,353 hMOR. In words: biochemical. The following applies: read-out: maximal efficacy as percentage of stimulation above basal levels.
Test [4] concerns the target T1, human mu opioid receptor (hMOR). In words: biochemical. The following applies: read-out: maximal efficacy as percentage of stimulation above basal levels.
The target of test [5] is T2, Ala^348,353 hMOR. Format: binding.

T2 sequence (P35372 whole entry C348A/C353A): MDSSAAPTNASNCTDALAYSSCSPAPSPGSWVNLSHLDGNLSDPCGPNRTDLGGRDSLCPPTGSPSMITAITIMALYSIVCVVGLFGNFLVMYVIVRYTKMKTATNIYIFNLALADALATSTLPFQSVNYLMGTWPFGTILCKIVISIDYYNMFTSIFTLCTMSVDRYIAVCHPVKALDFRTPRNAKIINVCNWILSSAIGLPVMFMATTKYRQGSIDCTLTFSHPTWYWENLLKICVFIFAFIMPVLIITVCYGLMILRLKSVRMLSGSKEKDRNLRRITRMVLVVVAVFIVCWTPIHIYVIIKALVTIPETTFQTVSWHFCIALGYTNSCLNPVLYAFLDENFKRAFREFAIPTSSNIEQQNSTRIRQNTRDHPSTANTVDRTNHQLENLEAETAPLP
T1 sequence (P35372 whole entry): as the sequence (P35372 whole entry C348A/C353A) above, with A348C, A353C counted along it

Turning to `COc1cccc2c1[C@]13CCN(CC4CC4)[C@H](C2)[C@]1(OC)CCC(=O)C3` [Cyprodime], the “hMOR expression level after ligand treatment” value in test [1] was found to be 103 ± 9%. Further, at Ala^348,353 hMOR [2], the “Ala^348,353 hMOR expression level after ligand treatment” value is 245 ± 20%.

In the case of `C[C@@H](NC(=O)[C@@H](N)Cc1ccc(O)cc1)C(=O)NCC(=O)N(C)[C@@H](Cc1ccccc1)C(=O)NCCO` [DAMGO, [D-Ala^2, N-Me-Phe^4, Gly^5-ol]-enkephalin], the Emax stood at 164 ± 6% on Ala^348,353 hMOR [3] and 366 ± 23% in test [4].

On to `C[C@@H](NC(=O)[C@@H](N)Cc1ccc(O)cc1)C(=O)N[C@@H](Cc1ccccc1)C(=O)NCC(=O)N[C@@H](Cc1ccc(O)cc1)C(=O)N1CCC[C@H]1C(=O)N[C@@H](CO)C(N)=O` [Dermorphin], for which the “increase in binding affinity for Ala^348,353 hMOR compared to hMOR” value on Ala^348,353 hMOR [5] is listed as “approximately 20 fold”.
